Measurements from patent EP1202120A2, “Charge transport compound, elctrophotographic organophotoreceptor comprising the same, and electrographic imaging apparatus and method” (SAMSUNG ELECTRONICS CO., LTD., priority 2000, dated 2002).
“Also recorded” adds a separate entry of the source.

Columns and labels:
[1] = Solubility testing in tetrahydrofuran at room temperature; settings: tetrahydrofuran as solvent
Description: Solubility testing was performed for individual charge transport compounds at room temperature using tetrahydrofuran as a solvent. The solubility was determined as the percent solids of saturated solution. In general, it is desirable to maximize the solubility value.

[2] = Ionization potential by electron photoemission in air; type: physicochemical; settings: CTM layer without binder; error ±0.03 eV
Description: Samples for ionization potential (Ip) measurements were prepared by dissolving compounds (B), (C), (E), (F), (G), and (H) and Comparative Example A separately in tetrahydrofuran. Each solution was hand-coated on an aluminized polyester substrate that was precision coated with a methylcellulose-based adhesive sub-layer to form a charge transport material (CTM) layer. The role of this sub-layer was to improve adhesion of the CTM layer, to retard crystallization of CTM, and to eliminate the electron photoemission from the Al layer through possible CTM layer defects. No photoemission was detected from the Al layer through the sub-layer at illumination with up to 6.4 eV quantum energy light. In addition, the adhesive sub-layer was conductive enough to avoid charge accumulation on it during measurement. The thickness of both the sub-layer and CTM layer was about 0.4 µm. No binder material was used in the preparation of the samples for Ip measurements. In most cases, the thin CTM layers were in a meta-stable amorphous phase, delaying crystallization for several hours, so that the measurement of the samples was possible.
The ionization potential was measured by the electron photoemission in an air method similar to that described in "Ionization Potential of Organic Pigment Film by Atmospheric Photoelectron Emission Analysis", Electrophotography, 28, No. 4, p. 364. (1989) by E. Miyamoto, Y. Yamaguchi, and M. Yokoyama, which is hereby incorporated by reference. The samples were illuminated with monochromatic light from a quartz monochromator with a deuterium lamp source. The power of the incident light beam was 2-5×10^-8 W. The negative voltage of -300 V was supplied to the sample substrate. The counter-electrode with the 4.5×15 mm^2 slit for illumination was placed at 8 mm distance from the sample surface. The counter-electrode was connected to the input of the BK2-16 type electrometer, working in the open input regime, for the photocurrent measurement. A photocurrent of 10^-15-10^-12 amp was flowed in the circuit under illumination. The photocurrent, I, was strongly dependent on the incident light photon energy hν. The I^0.5=f(hν) dependence was plotted. Usually the dependence of the square root of photocurrent on incident light quantum energy is well described by linear relationship near the threshold [see references "Ionization Potential of Organic Pigment Film by Atmospheric Photoelectron Emission Analysis", Electrophotography, 28, No. 4, p. 364. (1989) by E. Miyamoto, Y. Yamaguchi, and M. Yokoyama; and "Photoemission in Solids", Topics in Applied Physics, 26, 1-103. (1978) by M. Cordona and L. Ley]. The linear part of this dependence was extrapolated to the hν axis, and Ip value was determined as the photon energy at the interception point.

[3] = Thermal transitions by differential scanning calorimetry (glass transition temperature); type: physicochemical; settings: DSC; for Tg with 50% PCZ: mixture with Polycarbonate Z binder; for Tg without binder: neat sample
Description: Thermal transition data for various charge transport compounds was collected using a TA Instruments Model 2929 Differential Scanning Calorimeter (New Castle, DE) equipped with a DSC cooling system (-70°C minimum temperature limit), and dry helium and nitrogen exchange gases. The calorimeter ran on a Thermal Analyst 2100 workstation with version 8.10B software. An empty aluminum pall was used as the reference.
Samples were tested both neat and as a mixture with Polycarbonate Z ("PCZ"). The neat samples were prepared by placing 4.0 to 8.0 mg of neat charge transport material into an aluminum sample pan and crimping the upper lid to produce a hermetically sealed sample for DSC testing. The results were normalized on a unit mass basis.
The Polycarbonate Z-mixed samples were prepared by filling the bottom portion of the aluminum sample pan with a 15-20% solid solution of the charge transport material in Polycarbonate Z, followed by air-drying overnight. Each air-dried sample was then placed in a convection oven at 50-55°C for 24-48 hours to fully remove the solvent, after which the upper sample lid was crimped on to produce a sealed sample for DSC testing. Each sample size was in the range of 7.0-15.0 mg. The results were normalized on a unit mass basis.
Each sample was subjected to the following protocol to evaluate its thermal transition behavior: • 1. Equilibrate at 0°C (Default--Nitrogen Heat Exchange Gas); • 2. Isothermal for 5 min.; • 3. External Event: Nitrogen Heat Exchange Gas; • 4. Ramp 10.0°C/min to a temperature 30°C above the melting point of the charge transport material; • 5. External Event: Helium Heat Exchange Gas; • 6. Isothermal for 5 min.; • 7. Ramp 10.0°C/min to 0°C; • 8. External Event: Nitrogen Heat Exchange Gas; • 9. Isothermal for 5 min.; • 10. Ramp 10.0°C/min to a temperature 40°C above the melting point of the charge transport material; • 11. External Event: Helium Heat Exchange Gas; • 12. Isothermal for 5 min.; • 13. Ramp 10.0°C/min to 0°C; • 14. External Event: Nitrogen Heat Exchange Gas; • 15. Isothermal for 5 min; • 16. Ramp 10.0°C/min to 275°C.
The first cycle (steps 1-7) is used to (a) remove the thermal history of the sample, (b) obtain the melting transition for crystalline charge transport materials, and (c) obtain a homogeneous charge transport material/Polycarbonate Z mixture in the event the charge transport material is crystallized during sample preparation. A homogeneous mixture can be obtained as long as the charge transport material (molten or casted) is miscible with the Polycarbonate-Z.
The second cycle (steps 8-13) is used to identify the glass transition temperature and the recrystallization or melting transitions of charge transport materials.
The third cycle (steps 14-16) is used to report the final thermal transitions.
All temperatures are reported in °C. The abbreviation "CTM" indicates charge transport compounds. The abbreviation "PCZ" indicates the Polycarbonate Z binder.

| SMILES | Solubility [1] | lp (ionization potential) [2] | Tg with 50% PCZ [3] | Tg without binder [3] |
| --- | --- | --- | --- | --- |
| CCCCn1c2ccccc2c2cc(/C=N/N(CCCCCCN(/N=C/c3ccc4c(c3)c3ccccc3n4CCCC)c3ccccc3)c3ccccc3)ccc21 [H] | limited solubility; also recorded: Insoluble | 5.35, layer with crystal inclusions eV |  |  |
| CCCCCCCn1c2ccccc2c2cc(C=NN(CCCCCN(N=Cc3ccc4c(c3)c3ccccc3n4CCCCCCC)c3ccccc3)c3ccccc3)ccc21 [F] |  | 5.23 eV | 78.3 °C | 44.5 °C |
| CCn1c2ccccc2c2cc(C=NN(CCCCCN(N=Cc3ccc4c(c3)c3ccccc3n4CC)c3ccccc3)c3ccccc3)ccc21 [C] |  | 5.34 eV | 102.5 °C | 84.4 °C |
| CCCCCCCn1c2ccccc2c2cc(C=NN(CCCCCCCCCCN(N=Cc3ccc4c(c3)c3ccccc3n4CCCCCCC)c3ccccc3)c3ccccc3)ccc21 [E] |  | 5.38 eV | 56.9 °C | 29.3 °C |
| CCn1c2ccccc2c2cc(C=NN(CCCCCCCCCCN(N=Cc3ccc4c(c3)c3ccccc3n4CC)c3ccccc3)c3ccccc3)ccc21 [B] |  | 5.44 eV | 83.7 °C | 46 °C |
| CCn1c2ccccc2c2cc(C=NN(CCCCN(N=Cc3ccc4c(c3)c3ccccc3n4CC)c3ccccc3)c3ccccc3)ccc21 [D] |  |  |  | 79.1 °C |
